Experimental data published in PMC10672269, “Evaluation of Carbonic Anhydrase, Acetylcholinesterase, Butyrylcholinesterase, and α-Glycosidase Inhibition Effects and Antioxidant Activity of Baicalin Hydrate” (Life, 2023).
“And” between values parts separate entries of the source, which are not always exact repeats. Equal entries are not always repeated. Where two headings read alike, the source gives them in different places.

How the values were obtained:
ABTS radical scavenging = test: ABTS radical scavenging
Procedure: ABTS^•+ scavenging capacity of baicalin hydrate was measured according to a different work and was detected at 734 nm. ABTS^•+ was produced by the reaction of 2 mM ABTS in water with 2.45 mM potassium persulfate (K2S2O8), incubated in the dark at room temperature for five hours. Before usage, the ABTS^•+ solution was diluted to obtain an absorbance of 0.750 ± 0.025 at 734 nm with phosphate buffer (0.1 M, pH 7.4). Then, 1 mL of ABTS^•+ solution was added to 3 mL of baicalin hydrate in ethanol at different concentrations (10–30 µg/mL).
(§1) The IC50 values were determined using plots of activity (%) versus baicalin hydrate. Ki values and other inhibition factors were determined using Lineweaver–Burk graphs.

DPPH radical scavenging = test: DPPH radical scavenging
Procedure: The Blois technique was used to test the DPPH^• scavenging capacity of baicalin hydrate. Briefly, 0.25 mL of different concentrations of baicalin hydrate in ethanol (10–30 μg/mL) and 0.25 mL of DPPH radical solution (0.3 mM) in ethanol were combined with 1 mL ethanol in test tubes. The mixture was then incubated at 37 °C for 30 min. The DPPH radical scavenging activities of baicalin hydrate were measured at 517 nm.
as §1

[1] = Fe3+ reducing ability (potassium ferricyanide reduction); details: at 30 μg/mL
Procedure: According to prior investigation, baicalin hydrate’s ability to reduce Fe^3+ was achieved. Also, according to previous works, the Fe^3+-reducing effect of baicalin hydrate was tested. Briefly, 0.75 mL of deionized water and different doses of baicalin hydrate (10–30 μg/mL) were combined with 1.25 mL sodium phosphate buffer (pH 6.6, 0.2 M) and 1.25 mL of K3[Fe(CN)6] (1%). After 30 min incubation at 30 °C, the reaction medium was acidified with 1 mL trichloroacetic acid (10%, TCA) and re-incubated in the dark for 30 min. Finally, 0.5 mL of FeCl3 (0.1%) was transferred to the solution. The absorbance values of baicalin hydrate and references were recorded at 700 nm. The increased absorbance of the reaction mixture reflects an increasing reduction ability.

DMPD radical scavenging = test: DMPD radical scavenging
Procedure: Baicalin hydrate was evaluated for its capacity to remove DMPD^•+ using the Fogliano technique. For this purpose, 0.5 mL of FeCl3 (50 mM) and 1.5 mL of DMPD solution were added to the buffer solution (pH 5.3, 0.1 M). Then, this mixture was added to 1 mL of different concentrations (10–30 μg/mL) of baicalin hydrate. Then, the total volume was adjusted to 4 mL using deionized water. Finally, 1 mL of DMPD radicals were added, and their absorbances were recorded at 505 nm.
as §1

[2] = Cu2+ reducing ability (cupric ions reducing); details: at 30 μg/mL
Procedure: The technique of Apak et al. was utilized to assess the cupric ions (Cu^2+) reducing capacity of baicalin hydrate. After carrying out the required experimental procedures, the absorbances were detected at 450 nm using a spectrophotometer (Shimadzu, UV-1280, Kyoto, Japan). To do so, 0.2 mL CuCl2 solution (10 mM), 200 µL neocuproine solution (7.5 mM), and 200 µL CH3COONa buffer solution (1.0 M) were added to a test tube. The solution was mixed with different concentrations of baicalin hydrate (10–30 μg/mL). The total volume then reduced to 1.5 mL by adding distilled water and stored at room temperature. After 30 min incubation, the absorbances of the samples were measured at 450 nm. The increased absorbance of the reaction reflects increased reduction capacity.

[3] = cited from earlier work; for median inhibitory concentration (IC50): DPPH tests in a different investigation; for DPPH radical scavenging IC50: previous reports
hCA II isoenzyme = target: T1, hCA II isoenzyme (Homo sapiens, UniProt P00918); test: Human carbonic anhydrase II inhibition (esterase activity); format: biochemical
T1 construct: hCA II isoenzyme was purified from fresh human erythrocytes; from tissue
Procedure: hCA II isoenzyme was purified from fresh human erythrocytes. The erythrocytes were spun at 10,000× g for 30 min. The serum was then separated, and the pH was adjusted to 8.7 using solid Tris. Sepharose-4B-L-Tirozyne sulfanilamide affinity column chromatography was used to purify the CA II isoenzyme. […] Sodium acetate/NaClO4 (0.5 M, pH 5.6, 25 °C) was then used to elute the hCA II isozyme. The Bradford technique was used to measure the protein quantity throughout the purification process. Bovine serum albumin was employed as a reference protein. SDS-PAGE was used to monitor the purity of the hCA II isoform. Esterase activity was performed throughout hCA II’s purification and inhibition processes.
as §1

[4] = target: T2, butyrylcholinesterase (BChE) (Equus caballus, UniProt P81908); test: biochemical; parameters: species or system equine
T2 construct: BChE was purified from equine serum; from tissue; host or cells: equine serum
T2 sequence (P81908 whole entry): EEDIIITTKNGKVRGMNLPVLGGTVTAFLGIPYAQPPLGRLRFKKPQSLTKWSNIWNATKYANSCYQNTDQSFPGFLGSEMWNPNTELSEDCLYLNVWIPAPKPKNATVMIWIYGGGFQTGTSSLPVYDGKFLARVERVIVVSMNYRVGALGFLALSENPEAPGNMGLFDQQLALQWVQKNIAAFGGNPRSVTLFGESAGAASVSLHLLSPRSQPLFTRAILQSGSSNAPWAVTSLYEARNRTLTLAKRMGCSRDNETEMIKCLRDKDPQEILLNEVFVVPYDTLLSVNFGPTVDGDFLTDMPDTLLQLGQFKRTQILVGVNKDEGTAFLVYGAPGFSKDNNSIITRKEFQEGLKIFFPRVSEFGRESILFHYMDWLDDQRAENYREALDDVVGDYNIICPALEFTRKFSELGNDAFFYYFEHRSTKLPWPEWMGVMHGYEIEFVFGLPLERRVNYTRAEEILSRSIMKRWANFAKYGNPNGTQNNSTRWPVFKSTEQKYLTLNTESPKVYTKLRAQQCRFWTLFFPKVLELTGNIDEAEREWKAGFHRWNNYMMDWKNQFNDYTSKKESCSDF

[5] = target: T3, acetylcholinesterase (AChE) (Electrophorus electricus, UniProt O42275); test: Acetylcholinesterase inhibition (Ellman); format: biochemical, electric eel (Electrophorus electricus)
T3 construct: AChE was obtained from electric eel (Electrophorus electricus); from tissue
T3 sequence (O42275 24-633): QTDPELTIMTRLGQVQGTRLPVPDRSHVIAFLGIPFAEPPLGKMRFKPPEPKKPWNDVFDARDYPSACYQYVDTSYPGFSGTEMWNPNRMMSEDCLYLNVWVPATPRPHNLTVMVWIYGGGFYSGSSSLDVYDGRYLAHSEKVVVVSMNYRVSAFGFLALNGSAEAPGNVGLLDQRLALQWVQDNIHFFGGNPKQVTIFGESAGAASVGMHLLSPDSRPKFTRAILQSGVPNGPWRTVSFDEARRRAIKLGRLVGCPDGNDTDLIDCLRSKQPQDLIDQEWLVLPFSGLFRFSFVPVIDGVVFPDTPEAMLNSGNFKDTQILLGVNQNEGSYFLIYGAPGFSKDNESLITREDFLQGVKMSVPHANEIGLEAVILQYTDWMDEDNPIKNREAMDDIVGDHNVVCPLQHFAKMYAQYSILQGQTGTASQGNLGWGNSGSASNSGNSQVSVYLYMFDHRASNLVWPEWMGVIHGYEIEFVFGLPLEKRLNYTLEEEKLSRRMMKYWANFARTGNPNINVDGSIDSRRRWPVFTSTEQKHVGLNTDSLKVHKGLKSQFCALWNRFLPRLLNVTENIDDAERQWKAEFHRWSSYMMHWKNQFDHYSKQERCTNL

α-glycosidase = test: α-Glycosidase inhibition (p-NPG substrate); format: biochemical, Saccharomyces cerevisiae
Procedure: The inhibition effects of baicalin hydrate on α-glycosidase (from Saccharomyces cerevisiae) were assessed according to the procedure outlined by Tao et al.. p-Nitrophenyl-D-glucopyranoside (p-NPG) was used as a substrate for α-glycosidase. Briefly, 75 μL phosphate buffer (pH 7.4) was mixed with 5 μL of the sample and 20 μL α-glycosidase enzyme solution in a phosphate buffer (0.15 U/mL, pH 7.4). After preincubation, 50 μL of p-nitrophenyl-D-glycopyranoside (p-NPG) in a phosphate buffer (5 mM, pH 7.4) was transferred, and the solution was incubated at 37 °C. The absorbance of the samples was measured at 405 nm. The amount of enzyme that catalyzed […] of substrate per minute (pH 7.4) was one α-glycosidase unit.
as §1

[6] = parameters: method as in PMID 31832335, PMID 16243424, PMID 24980540, PMID 36297576, doi:10.1016/j.arabjc.2009.12.008; details: at similar concentration; cited from earlier work
[7] = cited from earlier work
[8] = parameters: method as in PMID 31832335, PMID 16243424, PMID 36297576, doi:10.1016/j.fbio.2022.101557, PMID 37693735; details: other existing studies; cited from earlier work
AChE = details: cited from earlier work; for Ki: read-out: Ki towards AChE
[9] = parameters: method as in PMID 31832335, PMID 36144638, PMID 37693735, PMID 21554120, PMID 36297576; details: at the same concentration; cited from earlier work

Compound: COc1ccc(O)c(C(C)(C)C)c1 [BHA, butylated hydroxyanisole]
- ABTS•+ scavenging IC50 (ABTS radical scavenging): 5.07 µg/mL
- DPPH• scavenging IC50 (DPPH radical scavenging): 10.10 µg/mL
- Fe^3+ reducing, absorbance λ (700 nm) [1]: 2.347 ± 0.046 and 2.347
- DMPD•+ scavenging IC50 (DMPD radical scavenging): 11.99 µg/mL
- Cu^2+ reducing, absorbance λ (450 nm) [2]: 2.216 ± 0.059 and 2.216

Compound: Cc1cc(C(C)(C)C)c(O)c(C(C)(C)C)c1 [BHT, butylated hydroxytoluene]
- ABTS•+ scavenging IC50 (ABTS radical scavenging): 6.99 µg/mL
- DPPH• scavenging IC50 (DPPH radical scavenging): 25.95 µg/mL
- Fe^3+ reducing, absorbance λ (700 nm) [1]: 0.952 ± 0.023 and 0.952
- median inhibitory concentration (IC50) [3]: 21.7 µg/mL
- DMPD•+ scavenging IC50 (DMPD radical scavenging): 8.72 µg/mL
- Cu^2+ reducing, absorbance λ (450 nm) [2]: 2.044 ± 0.041 and 2.044

Compound: O=C(O)[C@H]1O[C@@H](Oc2cc3oc(-c4ccccc4)cc(=O)c3c(O)c2O)[C@H](O)[C@@H](O)[C@@H]1O [Baicalin hydrate, baicalin hydrate]
- ABTS•+ scavenging IC50 (ABTS radical scavenging): 38.37 µg/mL
- DPPH• scavenging IC50 (DPPH radical scavenging): 13.40 µg/mL
- Fe^3+ reducing, absorbance λ (700 nm) [1]: 1.249
- Fe^3+ reducing, absorbance λ (700 nm) ([1]; listed as baicalin hydrate): 1.249 ± 0.014
- IC50 (hCA II isoenzyme): 0.0311 µM
- Ki (hCA II isoenzyme): 0.0193 ± 0.00179 µM
- IC50 [4]: 0.0123 µM
- Ki ([4]; n: 3, Lineweaver–Burk): 0.0035 ± 0.00068 µM
- IC50 [5]: 0.0147 µM
- Ki [5]: 0.01 ± 0.00286 µM
- Selectivity index (Ki for AChE/Ki BChE) [5]: 2.86
- median inhibitory concentration (IC50) [3]: 17.0 µg/mL
- DMPD•+ scavenging IC50 (DMPD radical scavenging): 90.91 µg/mL
- Cu^2+ reducing, absorbance λ (450 nm) [2]: 0.344
- Cu^2+ reducing, absorbance λ (450 nm) ([2]; listed as baicalin hydrate): 0.344 ± 0.033
- IC50 (α-glycosidase): 0.0246 µM
- Ki (α-glycosidase; n: 3, Lineweaver–Burk, read-out: Ki α-Gly): 0.027 ± 0.00991 µM

Compound: O=C(/C=C/c1ccc(O)c(O)c1)OCCc1ccccc1 [CAPE, caffeic acid phenethyl ester]
- Fe^3+ reducing absorbance [6]: 2.509
- DPPH radical scavenging IC50 [3]: 3.30 µg/mL
- ABTS•+ scavenging IC50 [7]: 9.80 µg/mL
- DMPD•+ scavenging IC50 [8]: 26.70 µg/mL

Compound: Cc1c(C)c2c(c(C)c1O)CCC(C)(C(=O)O)O2 (centres unmarked) [Trolox]
- ABTS•+ scavenging IC50 (ABTS radical scavenging): 6.16 µg/mL
- DPPH• scavenging IC50 (DPPH radical scavenging): 7.059 µg/mL
- Fe^3+ reducing, absorbance λ (700 nm) [1]: 2.119 ± 0.001 and 2.119
- DMPD•+ scavenging IC50 (DMPD radical scavenging): 4.33 µg/mL
- Cu^2+ reducing, absorbance λ (450 nm) [2]: 1.548 ± 0.024 and 1.548

Compound: O=C1O[C@H]([C@@H](O)CO)C(O)=C1O [ascorbic acid, reference compound]
- median inhibitory concentration (IC50) [3]: 19.6 µg/mL

Compound: O=C(O)[C@H]1O[C@@H](Oc2cc3oc(-c4ccccc4)cc(=O)c3c(O)c2O)[C@H](O)[C@@H](O)[C@@H]1O [baicalin]
- IC50 ([3]; read-out: DPPH radical IC50): 64.9 µM
- IC50 (AChE; a different study, read-out: 50% inhibition of AChE activity (IC50)): 124 µM

Compound: O=C(O)/C=C/c1ccc(O)c(O)c1 [caffeic acid]
- Fe^3+ reducing absorbance [6]: 2.769

Compound: O=c1oc2cc(O)ccc2c2oc3cc(O)ccc3c12 [coumestrol]
- Fe^3+ reducing absorbance [6]: 0.739
- Cu^2+ reduction absorbance [9]: 0.780
- DPPH radical scavenging IC50 [3]: 25.95 µg/mL
- ABTS•+ scavenging IC50 [7]: 12.24 µg/mL
- DMPD•+ scavenging IC50 [8]: 12.81 µg/mL
- Ki (AChE): 0.0214 µM

Compound: C=CCc1ccc(O)c(OC)c1 [eugenol]
- Cu^2+ reduction absorbance [9]: 0.762
- DPPH radical scavenging IC50 [3]: 16.06 µg/mL
- ABTS•+ scavenging IC50 [7]: 7.84 µg/mL
- DMPD•+ scavenging IC50 [8]: 10.04 µg/mL

Compound: COc1ccc2c(c1O)-c1c(O)c(OC)cc3c1[C@H](C2)[N+](C)(C)CC3 [magnofluorine]
- Fe^3+ reducing absorbance [6]: 0.967
- Cu^2+ reduction absorbance [9]: 0.468
- DPPH radical scavenging IC50 [3]: 10.58 µg/mL
- ABTS•+ scavenging IC50 [7]: 27.61 µg/mL
- DMPD•+ scavenging IC50 [8]: 15.16 µg/mL

Compound: CCCCCc1cc(O)cc(O)c1 [olivetol]
- Cu^2+ reduction absorbance [9]: 1.314
- DPPH radical scavenging IC50 [3]: 17.77 µg/mL
- ABTS•+ scavenging IC50 [7]: 1.94 µg/mL
- DMPD•+ scavenging IC50 [8]: 19.25 µg/mL

Compound: O=c1c(O)c(-c2ccc(O[C@@H]3O[C@H](CO)[C@@H](O)[C@H](O)[C@H]3O)c(O)c2)oc2cc(O)cc(O)c12 [spiraeoside]
- Fe^3+ reducing absorbance [6]: 1.012
- Cu^2+ reduction absorbance [9]: 0.519
- DPPH radical scavenging IC50 [3]: 28.51 µg/mL
- ABTS•+ scavenging IC50 [7]: 7.48 µg/mL
- DMPD•+ scavenging IC50 [8]: 8.15 µg/mL
- Ki (AChE): 0.0034 µM

Compound: O=C1c2c(O)cc(O)cc2OC(c2ccc(O)c(O)c2)C1O (centres unmarked) [taxifolin]
- Cu^2+ reduction absorbance [9]: 0.750
- DPPH radical scavenging IC50 [3]: 77.00 µg/mL
- ABTS•+ scavenging IC50 [7]: 0.83 µg/mL
- DMPD•+ scavenging IC50 [8]: 173.25 µg/mL
- Ki (AChE): 0.0167 µM

Compound: O=c1[nH]c(=O)c2[nH]c(=O)[nH]c2[nH]1 [uric acid]
- Fe^3+ reducing absorbance [6]: 0.432

Compound: CC(=O)c1c(O)c(C)c(O)c2c1OC1=CC(=O)C(C(C)=O)C(=O)C12C (centres unmarked) [usnic acid]
- Fe^3+ reducing absorbance [6]: 0.278
- Cu^2+ reduction absorbance [9]: 0.277
- DPPH radical scavenging IC50 [3]: 49.50 µg/mL
- ABTS•+ scavenging IC50 [7]: 10.4 µg/mL
- DMPD•+ scavenging IC50 [8]: 33.00 µg/mL

Compound: Cc1c(C)c2c(c(C)c1O)CC[C@@](C)(CCC[C@H](C)CCC[C@H](C)CCCC(C)C)O2 [α-Tocopherol]
- ABTS•+ scavenging IC50 (ABTS radical scavenging): 8.37 µg/mL
- DPPH• scavenging IC50 (DPPH radical scavenging): 11.31 µg/mL
- Fe^3+ reducing, absorbance λ (700 nm) [1]: 0.957 ± 0.018 and 0.957
- DMPD•+ scavenging IC50 (DMPD radical scavenging): 7.11 µg/mL
- Cu^2+ reducing, absorbance λ (450 nm) [2]: 0.816 ± 0.041 and 0.816

Compound: L-Adrenaline [reference compound]
- DPPH radical scavenging IC50 [3]: 30.6 µg/mL
- ABTS•+ scavenging IC50 [7]: 6.93 µg/mL
- DMPD•+ scavenging IC50 [8]: 15.6 µg/mL

Compound: tannic acid
- Fe^3+ reducing absorbance [6]: 2.428
